Where two headings read alike, the source gives them in different places.
Assays:
[1] = Percent relative humidity stability study; assay type: physicochemical
[2] = Aqueous solubility of salt polymorphs; settings: water, 25 °C, Aqueous Solubility at 25-30° C. (mg/ml)
[3] = solid kept for 20 days in 78% relative humidity

SMILES: COc1c(N2CCC(N)C(C)(C)C2)c(F)cc2c(=O)c(C(=O)O)cn(C3CC3)c12.Cl (racemic) [(±) A-1, (±)-1-cyclopropyl-6-fluoro-8-methoxy-7-(4-amino-3,3-dimethylpiperidin-1-yl)-1,4-dihydro-4-oxo-quinoline-3-carboxylic acid hydrochloride]
- polymorph change on storage (Powder X-ray Diffraction spectrum and aqueous solubility change) [1, 3]: changed to polymorph A-2

SMILES: COc1c(N2CCC(N)C(C)(C)C2)c(F)cc2c(=O)c(C(=O)O)cn(C3CC3)c12.Cl (racemic) [(±) A-3, (±)-1-cyclopropyl-6-fluoro-8-methoxy-7-(4-amino-3,3-dimethylpiperidin-1-yl)-1,4-dihydro-4-oxo-quinoline-3-carboxylic acid hydrochloride]
- polymorph change on storage (Powder X-ray Diffraction spectrum and aqueous solubility change) [1, 3]: changed to polymorph A-2

SMILES: COc1c(N2CCC(N)C(C)(C)C2)c(F)cc2c(=O)c(C(=O)O)cn(C3CC3)c12.CS(=O)(=O)O (racemic) [(±) B-1, (±)-1-cyclopropyl-6-fluoro-8-methoxy-7-(4-amino-3,3-dimethylpiperidin-1-yl)-1,4-dihydro-4-oxo-quinoline-3-carboxylic acid mesylate]
- solubility [2]: 80 to 200 mg/mL

SMILES: COc1c(N2CC[C@@H](N)C(C)(C)C2)c(F)cc2c(=O)c(C(=O)O)cn(C3CC3)c12.Cl [(+) A-1, R-(+)-1-cyclopropyl-6-fluoro-8-methoxy-7-(4-amino-3,3-dimethylpiperidin-1-yl)-1,4-dihydro-4-oxo-quinoline-3-carboxylic acid hydrochloride]
- polymorph change on storage (Powder X-ray Diffraction spectrum and aqueous solubility change) [1, 3]: changed to polymorph A-2

SMILES: COc1c(N2CC[C@@H](N)C(C)(C)C2)c(F)cc2c(=O)c(C(=O)O)cn(C3CC3)c12.Cl [(+) A-2, R-(+)-1-cyclopropyl-6-fluoro-8-methoxy-7-(4-amino-3,3-dimethylpiperidin-1-yl)-1,4-dihydro-4-oxo-quinoline-3-carboxylic acid hydrochloride]
- thermodynamic stability of polymorph ([1]; from percent relative humidity stability study and aqueous solubility data): thermodynamically stable

SMILES: COc1c(N2CC[C@@H](N)C(C)(C)C2)c(F)cc2c(=O)c(C(=O)O)cn(C3CC3)c12.Cl [(+) A-3, R-(+)-1-cyclopropyl-6-fluoro-8-methoxy-7-(4-amino-3,3-dimethylpiperidin-1-yl)-1,4-dihydro-4-oxo-quinoline-3-carboxylic acid hydrochloride]
- polymorph change on storage (Powder X-ray Diffraction spectrum and aqueous solubility change) [1, 3]: changed to polymorph A-2

SMILES: COc1c(N2CC[C@@H](N)C(C)(C)C2)c(F)cc2c(=O)c(C(=O)O)cn(C3CC3)c12.CS(=O)(=O)O [(+) B-1, R-(+)-1-cyclopropyl-6-fluoro-8-methoxy-7-(4-amino-3,3-dimethylpiperidin-1-yl)-1,4-dihydro-4-oxo-quinoline-3-carboxylic acid mesylate]
- solubility [2]: 80 to 200 mg/mL

SMILES: COc1c(N2CC[C@H](N)C(C)(C)C2)c(F)cc2c(=O)c(C(=O)O)cn(C3CC3)c12.Cl [(−) A-1, S-(−)-1-cyclopropyl-6-fluoro-8-methoxy-7-(4-amino-3,3-dimethylpiperidin-1-yl)-1,4-dihydro-4-oxo-quinoline-3-carboxylic acid hydrochloride]
- polymorph change on storage (Powder X-ray Diffraction spectrum and aqueous solubility change) [1]: changed to polymorph A-3

SMILES: COc1c(N2CC[C@H](N)C(C)(C)C2)c(F)cc2c(=O)c(C(=O)O)cn(C3CC3)c12.Cl [(−) A-2, S-(−)-1-cyclopropyl-6-fluoro-8-methoxy-7-(4-amino-3,3-dimethylpiperidin-1-yl)-1,4-dihydro-4-oxo-quinoline-3-carboxylic acid hydrochloride]
- polymorph change on storage (Powder X-ray Diffraction spectrum and aqueous solubility change) [1]: changed to polymorph A-3
- thermodynamic stability of polymorph [1]: thermodynamically stable

SMILES: COc1c(N2CC[C@H](N)C(C)(C)C2)c(F)cc2c(=O)c(C(=O)O)cn(C3CC3)c12.Cl [(−) A-3, S-(−)-1-cyclopropyl-6-fluoro-8-methoxy-7-(4-amino-3,3-dimethylpiperidin-1-yl)-1,4-dihydro-4-oxo-quinoline-3-carboxylic acid hydrochloride]
- thermodynamic stability of polymorph [1]: thermodynamically stable

SMILES: COc1c(N2CC[C@H](N)C(C)(C)C2)c(F)cc2c(=O)c(C(=O)O)cn(C3CC3)c12.Cl [(−) A-4, S-(−)-1-cyclopropyl-6-fluoro-8-methoxy-7-(4-amino-3,3-dimethylpiperidin-1-yl)-1,4-dihydro-4-oxo-quinoline-3-carboxylic acid hydrochloride]
- polymorph change on storage (Powder X-ray Diffraction spectrum and aqueous solubility change) [1]: changed to polymorph A-3
